This note sets out measurements from PubChem BioAssay (NCI).

Some test systems named below: MALME-3M melanoma; SR leukemia; TK-10 renal; HCC-2998 colon; COLO 205 colon; CAKI-1 renal; CCRF-CEM leukemia; UACC-257 melanoma; NCI-H226 lung; LOX IMVI melanoma.
What all share (assay): DTP human tumour cell line panel, 48 h

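Results reflect a 48-hour exposure of cells in 96-well plates to compound at five concentrations. At the GI50, growth is halved. The concentration for full growth arrest is given as TGI.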 A value given as a limit tells only on which side of the number the result lay.

One may read the GI50 as the concentration at which growth is held to half of that of the control. For orientation: TGI means the concentration at which net growth stops. A low value points to greater sensitivity of the cells. `CN(C)C(=O)OCc1nc2c(N3CCOCC3)nc(-c3ccccc3)nc2n1C`: the GI50 is 1.57 µM in the test on MALME-3M melanoma; 0.252 µM in the test with SR leukemia; 1.46 µM with TK-10 renal; 1.56 µM in the test on HCC-2998 colon; 1.32 µM with COLO 205 colon; 0.45 µM in the test on CAKI-1 renal. Also, the GI50 was 0.273 µM in the test on CCRF-CEM leukemia, 1.36 µM with UACC-257 melanoma, 1.69 µM in the test on NCI-H226 lung and 0.183 µM with LOX IMVI melanoma. The TGI in the test on MALME-3M melanoma was determined as 2.96 µM; in the test on SR leukemia, 2.98 µM; with TK-10 renal, 2.81 µM; in the test on HCC-2998 colon, 3.1 µM; with COLO 205 colon it was 2.97 µM; in the test on CAKI-1 renal, 1.7 µM. Also, the TGI with CCRF-CEM leukemia was found to be 1.55 µM; in the test with UACC-257 melanoma, 2.93 µM; in the test with NCI-H226 lung, 3.65 µM; in the test with LOX IMVI melanoma it was 0.402 µM.
Regarding `CNCC/C=C1\c2cc3c(cc2-c2c1c1cc(OC)c(OC)cc1c(=O)n2C)OCO3`, the GI50 in the test with MALME-3M melanoma was 0.419 µM; in the test with SR leukemia, below 0.01 µM; in the test on TK-10 renal, 0.941 µM; in the test with HCC-2998 colon, 3.41 µM; with COLO 205 colon, 1.73 µM; in the test on CAKI-1 renal, 0.278 µM. For the same compound, the 50% growth inhibitory concentration (GI50) in the test with CCRF-CEM leukemia was below 0.01 µM; in the test on UACC-257 melanoma, 3.13 µM; with NCI-H226 lung, 0.232 µM; with LOX IMVI melanoma it was 0.51 µM. In addition, the concentration for total growth inhibition (TGI) in the test with MALME-3M melanoma turned out to be 4.59 µM; in the test on TK-10 renal, 8.56 µM; in the test with HCC-2998 colon, 33.6 µM; in the test with COLO 205 colon, 41.2 µM; with CAKI-1 renal, 5.92 µM; in the test on UACC-257 melanoma, 12.4 µM. Also, the TGI in the test on NCI-H226 lung is 2.11 µM; with LOX IMVI melanoma, 2.57 µM.
For the compound `CCCCCCCCOCC(O)CO` (stereo not drawn), the TGI in the test with MALME-3M melanoma, in the test with SR leukemia, in the test on TK-10 renal, in the test with HCC-2998 colon, in the test with COLO 205 colon and in the test with CAKI-1 renal was above 100 µM each time. For the same compound, the TGI in the test with CCRF-CEM leukemia was 65 µM; with UACC-257 melanoma, above 100 µM; in the test with NCI-H226 lung, above 100 µM; in the test with LOX IMVI melanoma, above 100 µM.
In the case of `C/C(=N\NC(N)=S)c1ccc(C)c(C)c1`, the TGI is 94.1 µM in the test with MALME-3M melanoma; above 100 µM in the test on SR leukemia; above 100 µM in the test on TK-10 renal; above 100 µM in the test on HCC-2998 colon; above 100 µM in the test on COLO 205 colon; above 100 µM in the test on CAKI-1 renal. Moreover, the TGI with CCRF-CEM leukemia, in the test on UACC-257 melanoma, in the test with NCI-H226 lung and in the test on LOX IMVI melanoma was above 100 µM in each case.
With `CC1=C(/C=C/C(=O)CC(=O)/C=C/C2=C(C)CCCC2(C)C)C(C)(C)CCC1`, the GI50 with MALME-3M melanoma is 38.1 µM; in the test with SR leukemia, 11.9 µM; with TK-10 renal, 28.1 µM; with HCC-2998 colon, 35.4 µM; in the test on COLO 205 colon, 35.9 µM; with CAKI-1 renal, 19.1 µM. Besides, the GI50 in the test with CCRF-CEM leukemia is 5.22 µM; with UACC-257 melanoma, 20.6 µM; in the test on NCI-H226 lung, 23.3 µM; in the test on LOX IMVI melanoma, 18.5 µM. Further, the TGI with MALME-3M melanoma is above 100 µM; in the test with SR leukemia, 40.4 µM; in the test on TK-10 renal, above 100 µM; in the test with HCC-2998 colon, above 100 µM; with COLO 205 colon, above 100 µM; in the test on CAKI-1 renal, above 100 µM. In addition, the TGI with CCRF-CEM leukemia is 31 µM; with UACC-257 melanoma, 63.5 µM; in the test on NCI-H226 lung it was above 100 µM; in the test on LOX IMVI melanoma, 81 µM.
Consider `CC[C@@]1(OC(=O)C(N)CCCCN)C(=O)OCc2c1cc1n(c2=O)Cc2cc3ccccc3nc2-1` (stereo partly drawn), for which the TGI in the test on MALME-3M melanoma was 1.79 µM; in the test on SR leukemia, below 0.0217 µM; in the test with TK-10 renal it was 65.9 µM; in the test with HCC-2998 colon, 2.11 µM; in the test on COLO 205 colon, 3.39 µM; in the test on CAKI-1 renal, 0.158 µM. The TGI is 0.115 µM in the test on CCRF-CEM leukemia, 1.56 µM in the test on UACC-257 melanoma, 2.7 µM in the test with NCI-H226 lung and 0.18 µM in the test on LOX IMVI melanoma.
`COc1cccc(-c2nn(-c3ccccc3)cc2-c2ccnc(NCCCNC(=O)c3cccc(C(F)(F)F)c3)c2)c1`: the GI50 was 2.66 µM with MALME-3M melanoma; 2.1 µM in the test with SR leukemia; 7.33 µM in the test with TK-10 renal; 3.96 µM with HCC-2998 colon; 3.33 µM with COLO 205 colon; 6.27 µM with CAKI-1 renal. Besides, the GI50 was 6.11 µM in the test with CCRF-CEM leukemia, 4.4 µM in the test on UACC-257 melanoma, 2.24 µM in the test on NCI-H226 lung and 4.55 µM in the test on LOX IMVI melanoma. Besides, the TGI with MALME-3M melanoma came out at 8.22 µM; with SR leukemia, 8.02 µM; in the test with TK-10 renal it was 31.2 µM; with HCC-2998 colon it was 18.2 µM; in the test on COLO 205 colon, 12.4 µM; in the test with CAKI-1 renal, 32.5 µM. Further, the TGI is above 100 µM in the test with CCRF-CEM leukemia, 15.8 µM with UACC-257 melanoma, 10.7 µM in the test with NCI-H226 lung and 18.3 µM in the test with LOX IMVI melanoma.
Take `N#Cc1ccc(/C=C(/C(=O)c2ccccc2)c2ccccc2)cc1`: the TGI in the test on MALME-3M melanoma turned out to be 29.1 µM; with SR leukemia it was 8.4 µM; with TK-10 renal it was 57 µM; with HCC-2998 colon, 30.6 µM; in the test with COLO 205 colon it was 37.3 µM; in the test with CAKI-1 renal, 32.1 µM. Moreover, the TGI is above 29.1 µM in the test with CCRF-CEM leukemia, 29.6 µM in the test on UACC-257 melanoma, 31.5 µM in the test on NCI-H226 lung and 10.6 µM in the test on LOX IMVI melanoma.
